Measured values from patent publication US20210206763A1, “Anti-Proliferative Agents” (FEMTOGENIX LIMITED, priority 2015, published 2021).

Tests used:
Format in all cases: cell-based
[1] = test system: MCF-7 (HER2−); assay: In vitro cytotoxicity of ADCs; conditions: Homo sapiens, MCF7; 72 hour incubation
Description: (§1) The resulting ADCs were evaluated in vitro against relevant antigen positive cell-lines.

[2] = test system: SK-BR-3 (HER2+++); assay: In vitro cytotoxicity of ADCs; conditions: Homo sapiens, 72 hour incubation
Description: as §1

[3] = test system: ZR75-1 (HER2++) (Trastuzumab resistant); assay: In vitro cytotoxicity of ADCs; conditions: Homo sapiens, ZR-75-1; 72 hour incubation
Description: as §1

[4] = test system: 786-O (Renal Cell, CD70); assay: In vitro cytotoxicity of 41, cancer cell-line panel; conditions: Homo sapiens, 786-0; 72 hour incubation
Description: (§2) Tumor cell lines were maintained in RPMI1640 medium supplemented with 10% heat-inactivated fetal bovine serum, 2 mM L-glutamine and 1 mM sodium pyruvate. 1800 cells per well were seeded in a volume of 180 μl in a 96-well flat bottom polystyrene plate. The cells were allowed to adhere overnight at 37° C. in a CO2 incubator. Ligands were initially formulated in DMSO, and stocks stored at −80° C. They were then further formulated at lox concentration in RPMI1640 medium. 20 ul of diluted samples were added into each treatment well. On each plate, blank wells with no cells, and untreated wells containing cells, were included. Plates were then cultured at 37° C. in a CO2 incubator for 72 hrs. Cytotoxicity was evaluated using a tetrazolium salt-based assay, the MIT assay. After 72 hours, the supernatant was removed from each well and 200 μl of a sterile filtered 500 μg/ml MTT solution in water added to each well. The plates were then incubated at 37° C. in a CO2 incubator for 4 hrs. The supernatant was then removed and the formazan crystals formed solubilized by adding 15(411 of DMSO to each well. The plate was then read on a plate reader at 540 nm, and percentage cell survival calculated as follows: ((mean absorbance treated wells at concentration x−mean absorbance blank wells)÷(mean absorbance untreated wells at concentration x−mean absorbance blank wells))×100. Data were plotted as concentration in nM vs. % cell survival in Microsoft Excel, and IC50 values (concentration where cell survival is reduced by a half) were determined from the graph.

[5] = test system: A375 (Skin); assay: as above; conditions: Homo sapiens, A-375; 72 hour incubation
Description: as §2

[6] = test system: A549 (Lung); assay: as above; conditions: Homo sapiens, 72 hour incubation
Description: as §2

[7] = test system: AGS (Gastric); assay: as above; conditions: 72 hour incubation
Description: as §2

[8] = test system: AML2 (AML); assay: as above; conditions: 72 hour incubation
Description: as §2

[9] = test system: BxPC3 (Pancreas); assay: as above; conditions: Homo sapiens, BXPC-3; 72 hour incubation
Description: as §2

[10] = test system: Calu-3 (Lung); assay: as above; conditions: Homo sapiens, 72 hour incubation
Description: as §2

[11] = test system: EC Cancer Stem Cell (Cancer stem cells); assay: as above; conditions: 72 hour incubation
Description: as §2

[12] = test system: HL60 (APML); assay: as above; conditions: Homo sapiens, HL-60; 72 hour incubation
Description: as §2

[13] = test system: LnCap (Prostate); assay: as above; conditions: Homo sapiens, 72 hour incubation
Description: as §2

[14] = test system: PC3 (Prostate); assay: as above; conditions: 72 hour incubation
Description: as §2

[15] = test system: SK-HEP-1 (Liver); assay: as above; conditions: Homo sapiens, SK-HEP1; 72 hour incubation
Description: as §2

[16] = test system: SK-MEL-5 (Melanoma); assay: as above; conditions: Homo sapiens, 72 hour incubation
Description: as §2

[17] = test system: SW480 (Colorectal); assay: as above; conditions: Homo sapiens, 72 hour incubation
Description: as §2

SMILES	IC50 [1]	IC50 [2]	IC50 [3]	IC50 [4]	IC50 [5]	IC50 [6]	IC50 [7]	IC50 [8]	IC50 [9]	IC50 [10]	IC50 [11]	IC50 [12]	IC50 [13]	IC50 [14]	IC50 [15]	IC50 [16]	IC50 [17]
COc1cc2c(cc1OCCCC(=O)Nc1cc(C(=O)Nc3ccc(-c4cc(C(=O)Nc5ccc(N)cc5)n(C)c4)cc3)n(C)c1)N=C[C@@H]1CCCCN1C2=O [Compound 41, (S)—N-(4-aminophenyl)-4-(4-(4-(4-((2-methoxy-12-oxo-6a,7,8,9,10,12-hexahydrobenzo[e]pyrido[1,2-a][1,4]diazepin-3-yl)oxy)butanamido)-1-methyl-1H-pyrrole-2-carboxamido)phenyl)-1-methyl-1H-pyrrole-2-carboxamide]	289 pM	86 pM	630 pM														
COc1cc2c(cc1OCCCC(=O)Nc1cc(C(=O)Nc3ccc(-c4cc(C(=O)Nc5ccc(N)cc5)n(C)c4)cc3)n(C)c1)N=C[C@@H]1CCCCN1C2=O [Compound 41]				530 pM	280 pM	180 pM	70 pM	16 pM	430 pM	650 pM	2640 pM	9 pM	470 pM	360 pM	320 pM	390 pM	290 pM
